How the values were obtained:
Experiment in all cases: relative viability (nuclei count vs DMSO), 5 days (fraction); higher = more cells survive
[1] = test system: NCI-H1915
In short: (§1)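 The day after seeding in 1536-well plates, lung cancer cell lines were treated by pin tool with a single drug, or with a fixed anchor-drug dose together with five library-drug doses (not always all listed) in √10 steps. After 5 days, a combined fix-and-stain solution (final 0.05% Triton X-100, 1% formaldehyde, 1 ug/ml Hoechst) was added. Nuclei counted on 4× images gave relative viability as treated counts over vehicle counts, reported as the median of duplicate plates.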

[2] = test system: SK-LU-1
In short: as §1

[3] = test system: A-427
In short: as §1

[4] = test system: HCC-366
In short: as §1

[5] = test system: NCI-H1355
In short: as §1

[6] = test system: NCI-H23
In short: as §1

[7] = test system: NCI-H1437
In short: as §1

[8] = test system: NCI-H1792
In short: as §1

[9] = test system: SW 1573
In short: as §1

[10] = test system: NCI-H1395
In short: as §1

[11] = test system: COR-L 105
In short: as §1

[12] = test system: NCI-H727
In short: as §1

`NC(=O)Nc1cc(-c2cccc(F)c2)sc1C(=O)N[C@H]1CCCNC1` [AZD7762] + CS(=O)(=O)N1CCN(Cc2cc3nc(-c4cccc5[nH]ncc45)nc(N4CCOCC4)c3s2)CC1 [Pictilisib] (partner 1 µM) gave a relative viability ([1]; first compound 0.01 µM) of 0.931, a relative viability ([1]; first compound 0.03162 µM) of 0.96 and a relative viability ([1]; first compound 0.1 µM) of 1.02. The relative viability ([1]; first compound 0.3162 µM) was 0.918, the relative viability ([1]; first compound 1 µM) was 0.924 and the relative viability ([2]; first compound 0.01 µM) was 0.694. For the same compound, the relative viability ([2]; first compound 0.03162 µM) was 0.644, the relative viability ([2]; first compound 0.1 µM) was 0.337 and the relative viability ([2]; first compound 0.3162 µM) was 0.176. It also gave a relative viability ([2]; first compound 1 µM) of 0.2, a relative viability ([3]; first compound 0.01 µM) of 0.654 and a relative viability ([3]; first compound 0.03162 µM) of 0.879. The relative viability ([3]; first compound 0.1 µM) was 0.762, the relative viability ([3]; first compound 0.3162 µM) was 0.734 and the relative viability ([3]; first compound 1 µM) was 0.49. The relative viability ([4]; first compound 0.01 µM) was 0.153, the relative viability ([4]; first compound 0.03162 µM) was 0.128 and the relative viability ([4]; first compound 0.1 µM) was 0.213. The relative viability ([4]; first compound 0.3162 µM) was 0.137, the relative viability ([4]; first compound 1 µM) was 0.133 and the relative viability ([5]; first compound 0.01 µM) was 0.405. It also gave a relative viability ([5]; first compound 0.03162 µM) of 0.428, a relative viability ([5]; first compound 0.1 µM) of 0.44 and a relative viability ([5]; first compound 0.3162 µM) of 0.445. It also gave a relative viability ([5]; first compound 1 µM) of 0.391, a relative viability ([6]; first compound 0.01 µM) of 0.56 and a relative viability ([6]; first compound 0.03162 µM) of 0.533. For the same compound, the relative viability ([6]; first compound 0.1 µM) was 0.446, the relative viability ([6]; first compound 0.3162 µM) was 0.358 and the relative viability ([6]; first compound 1 µM) was 0.228. For the same compound, the relative viability ([7]; first compound 0.01 µM) was 0.501, the relative viability ([7]; first compound 0.03162 µM) was 0.442 and the relative viability ([7]; first compound 0.1 µM) was 0.483. The relative viability ([7]; first compound 0.3162 µM) was 0.555, the relative viability ([7]; first compound 1 µM) was 0.477 and the relative viability ([8]; first compound 0.01 µM) was 0.323. The relative viability ([8]; first compound 0.03162 µM) was 0.328, the relative viability ([8]; first compound 0.1 µM) was 0.311 and the relative viability ([8]; first compound 0.3162 µM) was 0.377. It also gave a relative viability ([8]; first compound 1 µM) of 0.431, a relative viability ([9]; first compound 0.01 µM) of 0.569 and a relative viability ([9]; first compound 0.03162 µM) of 0.479. For the same compound, the relative viability ([9]; first compound 0.1 µM) was 0.554, the relative viability ([9]; first compound 0.3162 µM) was 0.54 and the relative viability ([9]; first compound 1 µM) was 0.451. The relative viability ([10]; first compound 0.01 µM) was 0.663, the relative viability ([10]; first compound 0.03162 µM) was 0.643 and the relative viability ([10]; first compound 0.1 µM) was 0.674. It also gave a relative viability ([10]; first compound 0.3162 µM) of 0.514, a relative viability ([10]; first compound 1 µM) of 0.403 and a relative viability ([11]; first compound 0.01 µM) of 0.486. The relative viability ([11]; first compound 0.03162 µM) was 0.365, the relative viability ([11]; first compound 0.1 µM) was 0.31 and the relative viability ([11]; first compound 0.3162 µM) was 0.353. The relative viability ([11]; first compound 1 µM) was 0.242, the relative viability ([12]; first compound 0.01 µM) was 0.429 and the relative viability ([12]; first compound 0.03162 µM) was 0.346.

Reference: the supplement of paper PMC10307832
